Assay results as given in US7053088B2, “Vanilloid receptor ligands and their use in treatments” (Amgen Inc., priority 2002, dated 2006).
Structures can show the parent of a compound that is named as a salt.

For `CC(C)(C)c1ccc(-c2cc(Nc3ccc4c(c3)OCCO4)nc(N)n2)cc1` (as salt: hydrochloride) [[2-Amino-6-(4-tert-butylphenyl)pyrimidin-4-yl]-(2,3-dihydrobenzo[1,4]-dioxin-6-yl)amine hydrochloride], the melting point was 221 to 224 °C. Work on `CC(=O)N1CC(C)(C)c2ccc(Nc3cc(-c4ccc(C(F)(F)F)cc4)ncn3)cc21` [1-{3,3-Dimethyl-6-[6-(4-trifluoromethylphenyl)pyrimidin-4-ylamino]-2,3-dihydroindol-1-yl}ethanone] yielded a melting point of 227 to 230 °C. In the case of `OCCOc1ccc(Nc2cc(-c3ccc(C(F)(F)F)cc3)ncn2)cn1` [2-{5-[6-(4-Trifluoromethylphenyl)pyrimidin-4-ylamino]pyridin-2-yloxy}ethanol], the melting point is reported as 189.5 to 190.5 °C. For `Cc1cc(O)nc2cc(Nc3cc(-c4ccc(C(F)(F)F)cc4)ncn3)ccc12.Cl` [4-Methyl-7-{[6-(4-trifluoromethylphenyl)pyrimidin-4-yl]amino}quinolin-2-ol, hydrochloride], the melting point was 373 °C (dec.). `CC(C)(C)c1ccc(-c2cc(Nc3ccc4c(c3)CCCC4=O)ncn2)cc1` [6-[6-(4-tert-butylphenyl)pyrimidin-4-ylamino]-3,4-dihydro-2H-naphthalen-1-one] gave a melting point of 230 to 232 °C. With `Oc1ccc2ccc(Nc3cc(-c4ccc(C(F)(F)F)cc4)ncn3)cc2n1` [7-[6-(4-Trifluoromethylphenyl)pyrimidin-4-ylamino]quinolin-2-ol] the melting point was 337 °C (dec.). For `FC(F)(F)c1ccc(-c2cc(Nc3ccc4[nH]ncc4c3)ncn2)cc1` [(1H-indazol-5-yl)-[6-(4-trifluoromethylphenyl)pyrimidin-4-yl]amine], the melting point was 224 to 226 °C. Work on `FC(F)(F)c1ccc(-c2cc(Nc3ccc4c(c3)OCCO4)ncn2)cc1` [(2,3-dihydrobenzo[1,4]dioxin-6-yl)-[6-(4-trifluoromethylphenyl)pyrimidin-4-yl]amine] yielded a melting point of 167 to 168 °C. Compound `FC(F)(F)c1ccc(-c2cc(Nc3ccc4ccc(Cl)nc4c3)ncn2)cc1` [(2-Chloroquinolin-7-yl)-[6-(4-trifluoromethylphenyl)pyrimidin-4-yl]amine] has a melting point of 233 °C. Compound `FC(F)(F)c1ccc(-c2cc(Nc3cccc4ccc(Cl)nc34)ncn2)cc1` [(2-Chloroquinolin-8-yl)-[6-(4-trifluoromethylphenyl)pyrimidin-4-yl]amine] has a melting point of 240 °C. With `COc1ccc2ccc(Nc3cc(-c4ccc(C(F)(F)F)cc4)ncn3)cc2n1` [(2-Methoxyquinolin-7-yl)-[6-(4-trifluoromethylphenyl)pyrimidin-4-yl]amine] the melting point was 199 °C. In the case of `FC(F)(F)c1ccc(-c2cc(Nc3cccnc3Cl)ncn2)cc1` [(2-chloropyridin-3-yl)-[6-(4-trifluoromethylphenyl)pyrimidin-4-ylamine], the melting point is reported as 134 to 135 °C. Compound `Cc1nc2cc(Nc3cc(-c4ccc(C(F)(F)F)cc4)ncn3)ccc2s1` [(2-methylbenzothiazol-5-yl)-[6-(4-trifluoromethylphenyl)pyrimidin-4-yl]amine] has a melting point of 219.5 to 220.5 °C. For `FC(F)(F)c1ccc(-c2cc(Nc3ccc(Cl)c(Cl)c3)ncn2)cc1` [(3,4-dichlorophenyl)-[6-(4-trifluoromethylphenyl)pyrimidin-4-yl]amine], the melting point was 178 to 180 °C. For `Cc1ccc(Nc2cc(-c3ccc(C(F)(F)F)cc3)ncn2)cc1C` [(3,4-dimethylphenyl)-[6-(4-trifluoromethylphenyl)pyrimidin-4-yl]amine], the melting point was 154 to 156 °C. `CS(=O)(=O)c1cccc(Nc2cc(-c3ccc(C(F)(F)F)cc3)ncn2)c1` [(3-Methanesulfonylphenyl)-[6-(4-trifluoromethylphenyl)pyrimidin-4-yl]amine] showed a melting point of 204 to 205 °C. For `CSc1cccc(Nc2cc(-c3ccc(C(F)(F)F)cc3)ncn2)c1` [(3-methylsulfanylphenyl)-[6-(4-trifluoromethylphenyl)pyrimidin-4-yl]amine], the melting point was 130 to 132 °C.
